Test results: US12371428B2 (Exelixis, Inc., priority 2019, dated 2025)
Like-named read-outs stand apart in the source and are kept apart here.

Experiments:
Assay type in all cases: cell-based
[1] = molecular target: Mer (phospho-Mer, MERTK-transfected 293A cells) (Homo sapiens (Human), UniProt Q12866); experiment: Mer autophosphorylation ELISA in transient transfected 293A cells (Example H); conditions: cellular activity; Mer autophosphorylation ELISA in transient transfected 293A cells
Method in brief: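 Inhibition of cellular Mer autophosphorylation is determined in 293A cells transiently expressing human MERTK after 1 h compound exposure (8 concentrations, serum-free, 0.3% DMSO). Phospho-Mer in clarified lysates is measured by ELISA, with DMSO and reference-inhibitor wells defining the 100% and 0% activity limits.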

[2] = molecular target: KDR (phospho-KDR, VEGF165-stimulated HUVEC cells) (Homo sapiens (Human), UniProt P35968); experiment: KDR autophosphorylation ELISA in HUVEC cells (Example G); conditions: cellular activity; KDR autophosphorylation ELISA in HUVEC cells
KDR (phospho-KDR, VEGF165-stimulated HUVEC cells), sequence (P35968 20-1356): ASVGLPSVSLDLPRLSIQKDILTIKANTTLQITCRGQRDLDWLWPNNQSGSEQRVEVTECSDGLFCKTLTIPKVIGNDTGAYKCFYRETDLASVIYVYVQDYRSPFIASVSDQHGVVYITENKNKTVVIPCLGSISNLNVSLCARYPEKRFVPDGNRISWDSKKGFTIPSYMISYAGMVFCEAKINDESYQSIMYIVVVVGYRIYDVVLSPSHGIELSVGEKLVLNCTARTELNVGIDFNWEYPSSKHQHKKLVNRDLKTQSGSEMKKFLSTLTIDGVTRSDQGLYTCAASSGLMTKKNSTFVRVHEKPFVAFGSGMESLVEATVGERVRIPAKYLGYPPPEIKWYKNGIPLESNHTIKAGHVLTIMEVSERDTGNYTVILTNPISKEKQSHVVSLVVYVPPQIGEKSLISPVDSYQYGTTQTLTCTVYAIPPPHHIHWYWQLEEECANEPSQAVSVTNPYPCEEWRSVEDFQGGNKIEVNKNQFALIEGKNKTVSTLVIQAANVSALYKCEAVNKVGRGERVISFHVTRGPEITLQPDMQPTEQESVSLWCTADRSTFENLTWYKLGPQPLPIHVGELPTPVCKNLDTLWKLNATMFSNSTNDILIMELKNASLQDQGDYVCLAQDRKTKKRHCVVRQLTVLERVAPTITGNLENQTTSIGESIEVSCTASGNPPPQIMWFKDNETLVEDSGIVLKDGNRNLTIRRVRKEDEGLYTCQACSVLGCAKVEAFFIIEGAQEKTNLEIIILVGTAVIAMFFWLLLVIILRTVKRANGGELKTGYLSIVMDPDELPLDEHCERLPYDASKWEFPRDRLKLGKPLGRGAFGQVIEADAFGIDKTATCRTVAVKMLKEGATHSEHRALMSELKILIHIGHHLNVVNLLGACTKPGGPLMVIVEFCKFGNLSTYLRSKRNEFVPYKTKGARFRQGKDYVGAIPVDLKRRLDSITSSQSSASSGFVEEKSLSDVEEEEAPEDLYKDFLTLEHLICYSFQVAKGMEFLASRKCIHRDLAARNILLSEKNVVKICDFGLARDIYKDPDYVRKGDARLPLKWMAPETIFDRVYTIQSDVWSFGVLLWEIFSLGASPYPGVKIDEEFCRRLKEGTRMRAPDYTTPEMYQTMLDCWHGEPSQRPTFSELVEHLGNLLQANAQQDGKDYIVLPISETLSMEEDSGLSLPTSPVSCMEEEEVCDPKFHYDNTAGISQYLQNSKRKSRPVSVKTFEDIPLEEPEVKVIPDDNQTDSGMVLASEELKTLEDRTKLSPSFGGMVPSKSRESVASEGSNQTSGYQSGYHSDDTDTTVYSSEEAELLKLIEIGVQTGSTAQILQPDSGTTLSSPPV
Method in brief: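 HUVECs were serum-starved 24 h, given compound as an 8-point dilution series (0.3% DMSO final) for 1 h, then stimulated with 100 ng/mL VEGF165 for 5 min. Lysate phospho-KDR was quantified by sandwich ELISA against a phospho-KDR standard, and IC50s came from a 4-parameter logistic fit.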

[3] = molecular target: Met (phospho-Met, HGF-stimulated PC-3 prostate cancer cells) (Homo sapiens (Human), UniProt P08581); experiment: Met autophosphorylation ELISA in PC-3 cells (Example F); conditions: cellular activity; Met autophosphorylation ELISA in PC-3 cells; read-out: c-Met IC50
Met (phospho-Met, HGF-stimulated PC-3 prostate cancer cells), sequence (P08581 25-1390): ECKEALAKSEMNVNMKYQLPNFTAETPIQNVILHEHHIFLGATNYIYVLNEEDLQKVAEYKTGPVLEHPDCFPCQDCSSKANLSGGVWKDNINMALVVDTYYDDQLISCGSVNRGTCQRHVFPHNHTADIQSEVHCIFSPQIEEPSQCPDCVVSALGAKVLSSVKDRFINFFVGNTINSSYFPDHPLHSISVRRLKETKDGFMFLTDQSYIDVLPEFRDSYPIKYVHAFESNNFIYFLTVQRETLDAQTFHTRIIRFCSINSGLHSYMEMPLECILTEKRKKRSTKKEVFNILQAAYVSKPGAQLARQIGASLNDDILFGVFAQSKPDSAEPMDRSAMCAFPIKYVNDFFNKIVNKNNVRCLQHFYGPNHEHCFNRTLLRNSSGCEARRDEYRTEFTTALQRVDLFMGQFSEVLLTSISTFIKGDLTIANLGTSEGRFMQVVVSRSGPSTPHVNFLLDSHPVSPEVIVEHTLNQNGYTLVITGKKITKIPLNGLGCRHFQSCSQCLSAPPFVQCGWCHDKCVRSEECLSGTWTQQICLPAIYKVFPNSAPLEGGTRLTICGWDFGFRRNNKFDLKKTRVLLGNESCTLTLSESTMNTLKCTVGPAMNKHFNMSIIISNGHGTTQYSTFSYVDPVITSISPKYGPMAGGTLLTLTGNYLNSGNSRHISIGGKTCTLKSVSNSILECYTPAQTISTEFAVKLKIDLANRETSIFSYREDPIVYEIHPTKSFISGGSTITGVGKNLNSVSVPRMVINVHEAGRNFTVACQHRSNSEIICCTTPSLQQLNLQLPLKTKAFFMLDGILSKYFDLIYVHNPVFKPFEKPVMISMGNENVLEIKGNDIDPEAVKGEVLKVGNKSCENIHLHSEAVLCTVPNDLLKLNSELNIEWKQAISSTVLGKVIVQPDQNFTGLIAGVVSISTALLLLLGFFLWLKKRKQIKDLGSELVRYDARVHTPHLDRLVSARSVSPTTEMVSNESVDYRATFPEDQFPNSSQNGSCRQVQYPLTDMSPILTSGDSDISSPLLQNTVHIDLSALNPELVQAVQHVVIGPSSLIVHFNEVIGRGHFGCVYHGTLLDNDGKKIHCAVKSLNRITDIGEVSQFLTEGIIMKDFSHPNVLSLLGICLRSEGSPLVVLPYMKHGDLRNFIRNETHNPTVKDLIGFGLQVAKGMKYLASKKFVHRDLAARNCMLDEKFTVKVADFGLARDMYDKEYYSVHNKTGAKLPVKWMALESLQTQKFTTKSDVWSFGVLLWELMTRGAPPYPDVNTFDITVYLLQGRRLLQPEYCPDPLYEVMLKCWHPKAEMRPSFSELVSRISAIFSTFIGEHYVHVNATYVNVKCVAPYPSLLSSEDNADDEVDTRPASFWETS
Method in brief: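 IC50 values derive from a 4-parameter logistic fit of phospho-Met (panTyr) sandwich ELISA signals in PC-3 lysates, scaled between DMSO and reference-inhibitor wells. Cells, starved 3 h in serum-free medium, had 1 h compound exposure (8 doses, 0.3% DMSO) before 10 min stimulation with 100 ng/mL HGF.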

[4] = molecular target: AXL (phospho-AXL, Gas6-stimulated A-172 glioblastoma cells) (Homo sapiens (Human), UniProt P30530); experiment: AXL autophosphorylation ELISA in A-172 cells (Example E)
AXL (phospho-AXL, Gas6-stimulated A-172 glioblastoma cells), sequence (P30530 26-894): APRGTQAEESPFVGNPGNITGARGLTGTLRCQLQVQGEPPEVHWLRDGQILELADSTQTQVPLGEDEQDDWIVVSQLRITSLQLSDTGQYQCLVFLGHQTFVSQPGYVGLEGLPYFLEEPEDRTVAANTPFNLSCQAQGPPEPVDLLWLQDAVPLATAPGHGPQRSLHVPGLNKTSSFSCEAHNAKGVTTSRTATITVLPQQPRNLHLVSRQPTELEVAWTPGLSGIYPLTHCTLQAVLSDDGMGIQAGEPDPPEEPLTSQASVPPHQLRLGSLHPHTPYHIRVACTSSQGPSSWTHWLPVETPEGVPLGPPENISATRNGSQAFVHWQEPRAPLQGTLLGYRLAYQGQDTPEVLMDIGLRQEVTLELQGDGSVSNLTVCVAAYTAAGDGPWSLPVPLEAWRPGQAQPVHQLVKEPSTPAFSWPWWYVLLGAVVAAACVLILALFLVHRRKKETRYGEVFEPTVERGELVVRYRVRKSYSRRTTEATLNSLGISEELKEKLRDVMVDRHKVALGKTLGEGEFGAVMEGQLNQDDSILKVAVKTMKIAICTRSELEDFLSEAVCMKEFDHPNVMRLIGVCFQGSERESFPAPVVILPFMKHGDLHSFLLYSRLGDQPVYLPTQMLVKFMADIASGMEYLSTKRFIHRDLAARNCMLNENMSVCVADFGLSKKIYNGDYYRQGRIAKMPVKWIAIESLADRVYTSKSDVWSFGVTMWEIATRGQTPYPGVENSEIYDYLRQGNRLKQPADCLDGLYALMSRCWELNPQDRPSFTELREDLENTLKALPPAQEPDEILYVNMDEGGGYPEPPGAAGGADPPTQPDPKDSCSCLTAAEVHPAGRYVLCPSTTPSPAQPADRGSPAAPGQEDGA
Method in brief: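 Phospho-AXL in lysates was quantified by ELISA, normalised to DMSO (100%) and reference inhibitor (0%) controls. IC50 by 4-parameter logistic fit.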

[5] = cellular activity, AXL autophosphorylation ELISA in A-172 cells, read-out: Axl IC50

Mer (phospho-Mer, MERTK-transfected 293A cells), sequence (Q12866 21-999): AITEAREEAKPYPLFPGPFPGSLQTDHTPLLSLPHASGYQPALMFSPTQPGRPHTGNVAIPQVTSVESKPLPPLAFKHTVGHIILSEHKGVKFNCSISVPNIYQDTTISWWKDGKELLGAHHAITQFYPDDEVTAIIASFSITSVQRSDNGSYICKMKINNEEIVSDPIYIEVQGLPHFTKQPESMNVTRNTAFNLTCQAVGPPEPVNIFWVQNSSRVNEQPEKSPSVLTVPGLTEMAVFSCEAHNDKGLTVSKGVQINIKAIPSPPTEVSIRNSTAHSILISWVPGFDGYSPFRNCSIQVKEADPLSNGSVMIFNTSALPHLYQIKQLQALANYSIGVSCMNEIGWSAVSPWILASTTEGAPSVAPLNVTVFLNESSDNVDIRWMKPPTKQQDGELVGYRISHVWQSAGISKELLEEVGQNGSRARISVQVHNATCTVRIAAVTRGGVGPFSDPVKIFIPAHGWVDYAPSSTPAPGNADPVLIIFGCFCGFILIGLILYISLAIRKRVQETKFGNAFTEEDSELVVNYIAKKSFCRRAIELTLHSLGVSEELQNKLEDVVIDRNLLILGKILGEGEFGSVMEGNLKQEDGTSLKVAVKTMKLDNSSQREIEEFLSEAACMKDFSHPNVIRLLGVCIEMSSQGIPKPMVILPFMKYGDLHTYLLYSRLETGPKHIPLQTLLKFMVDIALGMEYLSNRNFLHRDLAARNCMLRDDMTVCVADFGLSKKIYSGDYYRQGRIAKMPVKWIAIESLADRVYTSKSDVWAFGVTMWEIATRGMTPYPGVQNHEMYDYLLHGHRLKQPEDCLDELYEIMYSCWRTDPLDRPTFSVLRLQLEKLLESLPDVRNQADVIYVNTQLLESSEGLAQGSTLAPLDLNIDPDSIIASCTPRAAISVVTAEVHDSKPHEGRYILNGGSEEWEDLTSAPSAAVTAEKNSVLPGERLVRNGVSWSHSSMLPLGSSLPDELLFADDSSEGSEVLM

| Compound | IC50 [1] [nM] | IC50 [2] [nM] | IC50 [3] [nM] | IC50 [4, 5] [nM] | IC50 [4] [nM] |
| --- | --- | --- | --- | --- | --- |
| C=Cc1c(C)c(C(=O)Nc2ccc(Oc3ccnc4cc(OCCOC)cnc34)c(F)c2)c(=O)n(-c2ccc(F)cc2)c1C [Compound 742, 5-ethenyl-N-[3-fluoro-4-[[7-(2-methoxyethoxy)-1,5-naphthyridin-4-yl]oxy]phenyl]-1-(4-fluorophenyl)-4,6-dimethyl-2-oxopyridine-3-carboxamide] | < 100 | > 300 | < 100 | < 100 |  |
| COc1cc(Oc2ccnc3cc(OC)c(OC)nc23)c(F)cc1NC(=O)c1cn(C)c(C)c(-c2ccc(F)cc2)c1=O [Compound 743, N-[4-[(6,7-dimethoxy-1,5-naphthyridin-4-yl)oxy]-5-fluoro-2-methoxyphenyl]-5-(4-fluorophenyl)-1,6-dimethyl-4-oxopyridine-3-carboxamide] | < 100 | > 300 | < 100 | < 100 |  |
| COc1cc(NC(=O)c2cn(C)c(C)c(-c3ccc(F)cc3)c2=O)c(F)cc1Oc1ccnc2cc(OC)c(OC)nc12 [Compound 745, N-[4-[(6,7-dimethoxy-1,5-naphthyridin-4-yl)oxy]-2-fluoro-5-methoxyphenyl]-5-(4-fluorophenyl)-1,6-dimethyl-4-oxopyridine-3-carboxamide] | < 100 | > 300 | < 100 | < 100 |  |
| COc1cc2nccc(Oc3cc(F)c(NC(=O)c4cn(C)c(C)c(-c5ccc(F)cc5)c4=O)cc3C)c2nc1OC [Compound 746, N-[4-[(6,7-dimethoxy-1,5-naphthyridin-4-yl)oxy]-2-fluoro-5-methylphenyl]-5-(4-fluorophenyl)-1,6-dimethyl-4-oxopyridine-3-carboxamide] | < 100 | > 300 | < 100 | < 100 |  |
| COc1cc2nccc(Oc3ccc(NC(=O)c4c(C)n(C)nc(-c5ccc(F)cc5C)c4=O)cc3F)c2nc1OC [Compound 750, N-[4-[(6,7-dimethoxy-1,5-naphthyridin-4-yl)oxy]-3-fluorophenyl]-6-(4-fluoro-2-methylphenyl)-2,3-dimethyl-5-oxopyridazine-4-carboxamide] | < 100 | 100 to 300 | < 100 |  | < 100 |
| COc1cnc2c(Oc3cc(F)c(NC(=O)c4c(C)nc(C)c(-c5ccc(F)cc5C)c4O)cc3F)ccnc2c1 [Compound 751, N-[2,5-difluoro-4-[(7-methoxy-1,5-naphthyridin-4-yl)oxy]phenyl]-5-(4-fluoro-2-methylphenyl)-4-hydroxy-2,6-dimethylpyridine-3-carboxamide] | < 100 | < 100 | < 100 | < 100 |  |
| CNC(=O)c1cc2nccc(Oc3cc(F)c(NC(=O)c4c(C)nc(C)c(-c5ccc(F)cc5C)c4O)cc3F)c2cc1C [Compound 752, 4-[2,5-difluoro-4-[[5-(4-fluoro-2-methylphenyl)-4-hydroxy-2,6-dimethylpyridine-3-carbonyl]amino]phenoxy]-N,6-dimethylquinoline-7-carboxamide] | < 100 | < 100 | < 100 | < 100 |  |
| COc1cc2nccc(Oc3ccc(NC(=O)c4c(OC)c(C(C)=O)cn(-c5ccc(F)cc5)c4=O)cc3)c2nc1OC [Compound 753, 5-acetyl-N-[4-[(6,7-dimethoxy-1,5-naphthyridin-4-yl)oxy]phenyl]-1-(4-fluorophenyl)-4-methoxy-2-oxopyridine-3-carboxamide] | < 100 | > 300 | < 100 | < 100 |  |
| COc1cc2nccc(Oc3ccc(NC(=O)c4cn5c(c(-c6ccc(F)cc6)c4=O)OC(C)C5)cc3F)c2nc1OC (centres unmarked) [Compound 759, N-[4-[(6,7-dimethoxy-1,5-naphthyridin-4-yl)oxy]-3-fluorophenyl]-8-(4-fluorophenyl)-2-methyl-7-oxo-2,3-dihydro-[1,3]oxazolo[3,2-a]pyridine-6-carboxamide] | < 100 | < 100 | < 100 | < 100 |  |
| COc1cc(NC(=O)c2cn(C)c(C)c(-c3ccc(F)cc3)c2=O)ccc1Oc1ccnc2cc(OC)c(OC)nc12 [Compound 762, N-[4-[(6,7-dimethoxy-1,5-naphthyridin-4-yl)oxy]-3-methoxyphenyl]-5-(4-fluorophenyl)-1,6-dimethyl-4-oxopyridine-3-carboxamide] | < 100 | < 100 | < 100 | < 100 |  |
| COc1cc2nccc(Oc3ccc(NC(=O)c4cn(C)c(C)c(-c5ccc(F)cc5)c4=O)cc3C)c2nc1OC [Compound 763, N-[4-[(6,7-dimethoxy-1,5-naphthyridin-4-yl)oxy]-3-methylphenyl]-5-(4-fluorophenyl)-1,6-dimethyl-4-oxopyridine-3-carboxamide] | < 100 | < 100 | < 100 | < 100 |  |
| COc1cc2nccc(Oc3ccc(NC(=O)c4cn(CCO)c(CO)c(-c5ccc(F)cc5C)c4=O)cc3F)c2nc1OC [Compound 765, N-[4-[(6,7-dimethoxy-1,5-naphthyridin-4-yl)oxy]-3-fluorophenyl]-5-(4-fluoro-2-methylphenyl)-1-(2-hydroxyethyl)-6-(hydroxymethyl)-4-oxopyridine-3-carboxamide] | < 100 | > 300 | < 100 | < 100 |  |

The remaining lines, values ahead:

| IC50 [1] [nM] | IC50 [2] [nM] | IC50 [3] [nM] | IC50 [4, 5] [nM] | IC50 [4] [nM] | Compound |
| --- | --- | --- | --- | --- | --- |
| < 100 | > 300 | < 100 | < 100 |  | COc1cc2nccc(Oc3cc(C)c(NC(=O)c4cn(C)c(C)c(-c5ccc(F)cc5)c4=O)cc3F)c2nc1OC [Compound 744, N-[4-[(6,7-dimethoxy-1,5-naphthyridin-4-yl)oxy]-5-fluoro-2-methylphenyl]-5-(4-fluorophenyl)-1,6-dimethyl-4-oxopyridine-3-carboxamide] |
| < 100 | 100 to 300 | < 100 | < 100 |  | COc1cc2nccc(Oc3ccc(NC(=O)c4c(C)c(Br)c(C)n(-c5ccccc5)c4=O)cc3F)c2nc1OC [Compound 747, 5-bromo-N-[4-[(6,7-dimethoxy-1,5-naphthyridin-4-yl)oxy]-3-fluorophenyl]-4,6-dimethyl-2-oxo-1-phenylpyridine-3-carboxamide] |
| < 100 | > 300 | < 100 | < 100 |  | Cn1cc(C(=O)Nc2ccc(Oc3ccnc4cccnc34)c(F)c2)c(=O)c(-c2ccc(F)cc2)c1CO [Compound 748, N-[3-fluoro-4-(1,5-naphthyridin-4-yloxy)phenyl]-5-(4-fluorophenyl)-6-(hydroxymethyl)-1-methyl-4-oxopyridine-3-carboxamide] |
| < 100 | > 300 | < 100 | < 100 |  | Cc1ccc2nccc(Oc3ccc(NC(=O)c4cn(C)c(CO)c(-c5ccc(F)cc5)c4=O)cc3F)c2n1 [Compound 749, N-[3-fluoro-4-[(6-methyl-1,5-naphthyridin-4-yl)oxy]phenyl]-5-(4-fluorophenyl)-6-(hydroxymethyl)-1-methyl-4-oxopyridine-3-carboxamide] |
| < 100 | > 300 | < 100 | < 100 |  | COc1cc2nccc(Oc3ccc(NC(=O)c4c(OC)c(C(C)=O)cn(-c5ccc(F)cc5)c4=O)cc3F)c2nc1OC [Compound 754, 5-acetyl-N-[4-[(6,7-dimethoxy-1,5-naphthyridin-4-yl)oxy]-3-fluorophenyl]-1-(4-fluorophenyl)-4-methoxy-2-oxopyridine-3-carboxamide] |
| < 100 | > 300 | < 100 | < 100 |  | COCCOc1cc2nccc(Oc3ccc(NC(=O)c4cc(C(C)=O)c(C)n(-c5ccc(F)cc5)c4=O)cc3)c2nc1OC [Compound 757, 5-acetyl-1-(4-fluorophenyl)-N-[4-[[6-methoxy-7-(2-methoxyethoxy)-1,5-naphthyridin-4-yl]oxy]phenyl]-6-methyl-2-oxopyridine-3-carboxamide] |
| < 100 | > 300 | < 100 | < 100 |  | COCCOc1cnc2c(Oc3ccc(NC(=O)c4cc(C(C)=O)c(C)n(-c5ccc(F)cc5)c4=O)cc3F)ccnc2c1 [Compound 758, 5-acetyl-N-[3-fluoro-4-[[7-(2-methoxyethoxy)-1,5-naphthyridin-4-yl]oxy]phenyl]-1-(4-fluorophenyl)-6-methyl-2-oxopyridine-3-carboxamide] |
| < 100 | > 300 | < 100 | < 100 |  | COCCOc1cc2c(Oc3ccc(NC(=O)c4cn(C)c(C)c(-c5ccc(F)cc5)c4=O)cc3F)ccnc2nc1OC [Compound 760, N-[3-fluoro-4-[[7-methoxy-6-(2-methoxyethoxy)-1,8-naphthyridin-4-yl]oxy]phenyl]-5-(4-fluorophenyl)-1,6-dimethyl-4-oxopyridine-3-carboxamide] |
